We go through 4 compounds from patent US20230390223A1, “ADMINISTRATION OF […] COMPOSITIONS FOR TREATING NERVOUS SYSTEM DISORDERS” (PaxMedica, Inc., priority 2020, published 2023).

In data set [1] the test system is B6.129P2-Fmr1tm1Cgr/J transgenic (TG) mice. The experiment in a line: Light/dark preference test (LDT), anxiety-like behavior, SmartCage. The format is in vivo. From the text:
The light/dark preference test (LDT) is one of the most widely used tests in pharmacology to measure unconditioned anxiety-like behavior in mice. The test is based on the natural aversion of mice to brightly illuminated areas and on their spontaneous exploratory behavior in response to a novel environment and light. See, Takao, K., et al., Light/dark Transition Test for Mice. J. Vis. Exp. (1), e104, doi:10.3791/104 (2006).
This study used a SmartCage™ system, which is an automated non-invasive rodent behavioral monitoring system which enables biomedical researchers to conduct a variety of neurobehavioral assays through consistent and accurate monitoring of rodent home cage activity and behavior. See, Xie X. S. et al. (2012) Rodent Behavioral Assessment in the Home Cage Using the SmartCage™™ System. In: Chen J., Xu X M., Xu Z., Zhang J. (eds) Animal Models of Acute Neurological Injuries II. Springer Protocols Handbooks. Humana Press, Totowa, NJ.
• 1. N=6 mice per group. • 2. All behavioral testing included a group of untreated wild type controls. • 3. Dosing for the various groups were as follows: • a. […] Group 2: IP saline, […], administered weekly to animals beginning at 9 weeks of age and continuing for four weeks (i.e. given at Age Weeks 9, 10, 11 and 12). • c. […] Behavioral tests for all groups (Groups 1-5) began the following day after the last day of IN dosing (Weeks 13-14 of age). • 2. Blood samples (PK testing) were collected from all mice at the end of 12 Weeks of age, just prior to starting the behavioral tests in Week 13. • 3. Brain tissue (for biochemistry testing) was harvested from all mice upon sacrifice at the conclusion of all behavioral testing at the end of 13-14 Weeks of age.
Male B6.129P2-Fmr1tm1Cgr/J TG mice were purchased from Jackson Laboratories, Bar Harbor, Maine. These mice were of approximately 8(±1) weeks of age. […] Mice accommodated to the research facility for the remainder of the week. Dosing began on the following Monday. Body weights of all mice were recorded for health monitoring purposes.
Dosing was carried out over the course of 28 days as instructed by the study sponsor. • 1. Prior to the beginning of the light/dark test, a dark box (red transparent enclosure with an opening for the mouse to enter) is placed in the SmartCage™. • 2. An individual mouse is placed in the open/non-dark box side (“Light Zone”), with its head facing away from the dark box. • 3. The mouse is then allowed to freely explore the SmartCage™ and enter the dark box “Dark Zone” at its own discretion over a 10-minute span. • 4. Anxiety-like behavior is assessed based on the SmartCage™ monitoring of time spent in the Light Zone, the number of Light Zone entries, and % Time Spent in the Light Zone. • 5. […] Wildtype Control data (collected separately prior to the beginning […] of the B6.129P2-Fmr1tm1Cgr/J TG mice) was added to the final data analysis to serve as a comparison for naive, male C57BL/6 mice.
No food or water is withheld and only natural stressors such as light are used. Four similarly calibrated SmartCages™ were used to record four mice simultaneously (example cage shown below). All Light/Dark tests were completed in one day.
Light/Dark Test Setup—Dark Box placed within the transparent homecage; homecage placed within the SmartCage™ monitoring system.

Another data set relates to mouse model of epilepsy. Particulars: cited from earlier work.
In data set [2] the test system is B6.129P2-Fmr1tm1Cgr/J transgenic (TG) mice. The experiment in a line: Locomotor activity test, SmartCage ~24 h recording. Particulars: for Active time: versus WT control group. The format is in vivo.
Data set [3] shares this test system. The experiment in a line: Step through passive avoidance test (learning and memory). It counts as in vivo. The source says: The Passive Avoidance task is useful for evaluating the effect of novel chemical entities on learning and memory as well as studying the mechanisms involved in rodent models of CNS disorders. In this test, the test chamber is divided into a lighted compartment and a dark compartment, with a gate between the two. The test animals explored both compartments on the first day. The next day, they are given a mild foot shock in the dark compartment and they will learn to associate the dark compartment with the foot shock. In order to test their learning and memory, the mice are then placed back in the lighted compartment. Passive avoidance behavior of rodents is defined as the suppression of their innate preference for the dark compartment. Mice with normal learning and memory will avoid entering the dark chamber. Learning and memory from the previous day is measured by recording the latency to cross through the gate between the two compartments. See, J. David Sweatt, Chapter 4: Rodent Behavioral Learning and Memory Models, Editor: J. David Sweatt. Mechanisms of Memory (Second Edition), Academic Press, 2010, Pages 76-103, ISBN 9780123749512.
This study used a SmartCage™ system, which is an automated non-invasive rodent behavioral monitoring system which enables biomedical researchers to conduct a variety of neurobehavioral assays through consistent and accurate monitoring of rodent home cage activity and behavior. See, Xie et al, 2012.
• 1. N=6 mice per group. • 2. All behavioral testing included a group of untreated wild type (WT) controls. • 3. Dosing for the various groups were as follows: • a. […] Group 2: IP saline, […], administered weekly to animals beginning at 9 weeks of age and continuing for four weeks (i.e. given at Age Weeks 9, 10, 11 and 12). • c. […] Behavioral tests for all groups (Groups 1-5) began the following day after the last day of IN dosing (Weeks 13-14 of age). • 2. Blood samples (for PK testing) were collected from all mice at the end of Week 12 of age, just prior to starting the behavioral tests in Week 13 of age. • 3. Brain tissue (for biochemistry testing) was harvested from all mice upon sacrifice at the conclusion of all behavioral testing at the end of Week 13-14 of age.
Male B6.129P2-Fmr1tm1Cgr/J TG (TG) mice were purchased from Jackson Laboratories, Bar Harbor, Maine. These mice were of approximately 8 (±1) weeks of age. […] Mice accommodated to the research facility for the remainder of the week. Dosing began on the following Monday. Body weights of all mice were recorded for health monitoring purposes.
Dosing was carried out over the course of 28 days as instructed by the study Sponsor. […]

Data set [4] can be described thus: Determination of suramin in plasma and brain tissue after IP or IN administration. The conditions noted are these: for Kp: male, Fmr1-knockout B6.129P2-Fmr1tm1Cgr/J, mouse, brain/plasma, other: intranasal, 100 mg/mL, read-out: Average Brain Tissue to Plasma Partitioning Ratio. It counts as in vivo, mice. The source says:
For the study, male Fmr1-knockout B6.129P2-Fmr1tm1Cgr/J TG mice were purchased from Jackson Laboratories, Bar Harbor, Maine. These mice were of approximately 8 weeks of age. […] The absence of FMRP in these mice induces an over-activation of RAC1, a protein of the Rho GTPase subfamily that plays a critical role in dendritic morphology and synaptic function. These B6.129P2-Fmr1tm1Cgr/J TG mice, provide an animal model for cognitive disabilities and neurodevelopmental disorders.
Mice were accommodated to the research facility for approximately a week. Body weights of all mice were recorded for health monitoring purposes.
The remaining ingredients, except the cyclodextrin are added with mixing. The cyclodextrin is then added with mixing until dissolved. The resultant solution is allowed to sit for 2 hours before using.
Blood samples were collected from all mice at the end of 12 weeks of age. Brain tissue was harvested from all mice upon sacrifice 13-14 weeks of age. Standard sample preparation and analytical techniques were used to obtain the data.

[5] abbreviates: 10-minute test, group regimens: A-804598 IP 30 mg/kg/day, tangeretin IP 10 mg/kg/day, emodin+piperine PO 20 mg/kg each twice per day.
[6] abbreviates: 5-minute test, suramin IP 20 mg/kg weekly for four weeks.
The mark [7] stands for this setting: suramin IP 20 mg/kg weekly for four weeks.
Setting [8] is: 10-minute test, suramin IN weekly (100 mg/mL, one spray per nostril, 4 weeks).

Each structure is given as a SMILES string. Where “and” joins values, the source holds several entries; their conditions need not be identical. Identical values can stand only once. Like-named read-outs stand apart in the source and are kept apart here.

Take `C[C@H](N/C(=N/C#N)Nc1cccc2ncccc12)c1ccccc1` [Formulation A-804598, N-Cyano-N″-[(1S)-1-phenylethyl]-N′-5-quinolinyl-guanidine]: in data set [1] (10-minute test, each group at its regimen, compared to WT mice), the “number of Light Zone entries” value was “significantly lower number of light zone entries”.

Regarding `O=C(NCC1(N2CCN(c3ccccc3)CC2)CCOCC1)c1cccnc1Sc1ccccc1` [JNJ-47965567, 2-(Phenylthio)-N-[[tetrahydro-4-(4-phenyl-1-piperazinyl)-2H-pyran-4-yl]methyl]-3-pyridinecarboxamide], in the data set with mouse model of epilepsy, the “effect on epileptic seizures” value was “suppress epileptic seizures”.

Take `COc1ccc(-c2cc(=O)c3c(OC)c(OC)c(OC)c(OC)c3o2)cc1` [Tangeretin, 5,6,7,8-tetramethoxy-2-(4-methoxyphenyl)-4H-1-benzopyran-4-one]: the Active time entry in data set [2] (A-804598 IP 30 mg/kg/day, tangeretin IP 10 mg/kg/day) is reported as “greater activity compared to the WT control group”. Also, in data set [3] (test day, tangeretin IP 10 mg/kg/day, emodin+piperine PO 20 mg/kg each twice per day, other groups at their regimens), the “total number of Dark Zone Entries” value is reported as “one”. In data set [1] (setting [5]), the “percentage of time spent in the Light Zone” value is reported as “higher percentage of time spent in the Light Zone” and the “total time spent in the light zone” value is ~6.5 min.

`Cc1ccc(C(=O)Nc2ccc(S(=O)(=O)O)c3cc(S(=O)(=O)O)cc(S(=O)(=O)O)c23)cc1NC(=O)c1cccc(NC(=O)Nc2cccc(C(=O)Nc3cc(C(=O)Nc4ccc(S(=O)(=O)O)c5cc(S(=O)(=O)O)cc(S(=O)(=O)O)c45)ccc3C)c2)c1` [suramin, 1,3,5-Naphthalenetrisulfonic acid, 8,8′-[carbonylbis[imino-3,1-phenylenecarbonylimino(4-methyl-3,1-phenylene)carbonylimino]]bis-]: the Active time result in data set [2] (all IN Suramin groups (Daily, Weekly, Every 2 Days)) was “greater activity compared to the WT control group”. The Rearing count result in data set [2] (suramin IN every 2 days, versus WT control) is “comparable to the WT control group”. In data set [3] (setting [6]), the “percentage of time spent in the light zone on the test day” value was “approximately 50%”. The “total light zone time on the test day” value in data set [3] (setting [6]) is “lower total time”. Moreover, the “Dark Zone entry latency, Test Day (24 h post-foot shock)” value in data set [3] (setting [7]) is reported as “shortest latency for entering the dark compartment”. The “Average Plasma Concentration” value in data set [4] (Group 1: IP 20 mg/kg weekly for four weeks, blood at end of 12 weeks of age, 20 mg/kg) was 18733 ng/ml and 14.440 μM; in data set [4] (Group 3: IN formulation 100 mg/mL, one spray per nostril, one time per day for 28 days), 1637 ng/ml and 1.262 μM; in data set [4] (Group 4: IN formulation 100 mg/mL, one spray per nostril, every other day for 28 days), 1578 ng/ml and 1.217 μM; in data set [4] (Group 5: IN formulation 100 mg/mL, one spray per nostril, one time every week for 4 weeks) it was 278.7 ng/ml and 0.215 μM. Further, the Kp in data set [4] (one spray per nostril, Group 3: IN formulation 100 mg/mL, one spray per nostril, one time per day for 28 days) came to 0.069; in data set [4] (one spray per nostril, Group 4: IN formulation 100 mg/mL, one spray per nostril, every other day for 28 days) it was 0.089; in data set [4] (one spray per nostril, Group 5: IN formulation 100 mg/mL, one spray per nostril, one time every week for 4 weeks) it was 0.235. In data set [1] (setting [8]), the “percentage of time spent in the Light Zone” value is reported as “higher percentage of time spent in the Light Zone”. Also, the “total time spent in the light zone” value in data set [1] (setting [8]) is ~6.5 min. The “Dark Zone entry latency” value was in the range of 60 to 65 s in data set [1] (all IN suramin groups (daily, every other day, weekly; 100 mg/mL, one spray per nostril, 28 days)) and 30 to 40 s in data set [1] (setting [7]).
